Measured values reported in ChEMBL document CHEMBL3124764, “6-Triazolyl-substituted sulfocoumarins are potent, selective inhibitors of the tumor-associated carbonic anhydrases IX and XII” (Bioorg Med Chem Lett, 2014).

Experiments:
[1] = target: Carbonic anhydrase 2 (Homo sapiens, UniProt P00918); test: Inhibition of human recombinant carbonic anhydrase 2-mediated CO2 hydration after 6 hrs by stopped-flow assay
[2] = target: Carbonic anhydrase 1 (Homo sapiens, UniProt P00915); test: Inhibition of human recombinant carbonic anhydrase 1-mediated CO2 hydration after 6 hrs by stopped-flow assay
Carbonic anhydrase 1, sequence (P00915 whole entry): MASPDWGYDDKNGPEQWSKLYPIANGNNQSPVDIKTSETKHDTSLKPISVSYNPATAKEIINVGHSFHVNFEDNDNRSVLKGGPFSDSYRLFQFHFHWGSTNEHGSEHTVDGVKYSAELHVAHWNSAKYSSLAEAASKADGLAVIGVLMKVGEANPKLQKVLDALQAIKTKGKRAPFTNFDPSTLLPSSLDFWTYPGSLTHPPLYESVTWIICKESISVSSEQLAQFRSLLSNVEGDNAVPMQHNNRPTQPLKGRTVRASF

[3] = target: T1, Carbonic anhydrase 9 (Homo sapiens, UniProt Q16790); test: Inhibition of human recombinant carbonic anhydrase 9-mediated CO2 hydration after 6 hrs by stopped-flow assay
[4] = target: T1, Carbonic anhydrase 9; test: Ratio of acetazolamide Ki to compound Ki for human recombinant carbonic anhydrase 9

Ki [1] [µM] | Ki [2] [µM] | Ki [3] [µM] | Ratio Ki [4] | Structure (SMILES)
> 10 | > 10 | – | – | O=S1(=O)C=Cc2cc(-n3cc(-c4cccc(F)c4)nn3)ccc2O1
> 10 | > 10 | – | – | O=S1(=O)C=Cc2cc(-n3cc(C4CC4)nn3)ccc2O1
> 10 | > 10 | 0.0091 | – | COc1cccc(-c2cnnn2-c2ccc3c(c2)C=CS(=O)(=O)O3)c1
> 10 | > 10 | 0.0095 | – | Nc1ccccc1-c1cnnn1-c1ccc2c(c1)C=CS(=O)(=O)O2
> 10 | > 10 | – | – | O=S1(=O)C=Cc2cc(-n3cc(-c4ccc(F)cc4)nn3)ccc2O1
> 10 | > 10 | 0.0079 | – | Nc1ccccc1-c1cn(-c2ccc3c(c2)C=CS(=O)(=O)O3)nn1
> 10 | > 10 | – | – | O=S1(=O)C=Cc2cc(-n3nncc3-c3cccc(C(F)(F)F)c3)ccc2O1
> 10 | > 10 | – | – | O=S1(=O)C=Cc2cc(-n3nncc3-c3ccc(F)cc3)ccc2O1
> 10 | > 10 | 0.0083 | – | COc1ccc(-c2cnnn2-c2ccc3c(c2)C=CS(=O)(=O)O3)cc1
> 10 | > 10 | 0.0074 | – | O=S1(=O)C=Cc2cc(-n3nncc3-c3cccc(F)c3)ccc2O1
> 10 | > 10 | 0.136 | – | O=S1(=O)C=Cc2cc(-n3cc(-c4ccc(C(F)(F)F)cc4)nn3)ccc2O1
> 10 | > 10 | 0.0671 | – | O=S1(=O)C=Cc2cc(-n3nncc3-c3ccccc3)ccc2O1
> 10 | > 10 | – | 3 | O=S1(=O)C=Cc2cc(-n3cc(-c4ccc(Cl)cc4)nn3)ccc2O1
> 10 | > 10 | 0.875 | – | Nc1cccc(-c2cn(-c3ccc4c(c3)C=CS(=O)(=O)O4)nn2)c1
> 10 | > 10 | 0.0105 | – | CC(C)(C)c1cn(-c2ccc3c(c2)C=CS(=O)(=O)O3)nn1
> 10 | > 10 | 0.102 | – | O=S1(=O)C=Cc2cc(-n3nncc3-c3ccc(OC(F)(F)F)cc3)ccc2O1
> 10 | > 10 | 0.0092 | – | O=S1(=O)C=Cc2cc(-n3nncc3-c3ccc(Cl)cc3)ccc2O1

Structure (SMILES) | Ki [1] [µM] | Ki [2] [µM] | Ki [3] [µM] | Ratio Ki [4]
CC(C)(O)c1cn(-c2ccc3c(c2)C=CS(=O)(=O)O3)nn1 | > 10 | > 10 | 0.0627 | –
O=S1(=O)C=Cc2cc(-n3cc(-c4cccc(Cl)c4)nn3)ccc2O1 | > 10 | > 10 | 0.0931 | –
O=S1(=O)C=Cc2cc(-n3nncc3-c3ccc(C(F)(F)F)cc3)ccc2O1 | > 10 | > 10 | 0.0072 | –
O=S1(=O)C=Cc2cc(-n3nncc3-c3cccc(Cl)c3)ccc2O1 | > 10 | > 10 | 0.0088 | –
